Measurements as given in publication PMC2904774 (PLoS Pathogens, 2010).

Target: T1, NUE (CT737), GST-NUE (Chlamydia trachomatis, UniProt O84742)
T1 construct: gene CT_737
Conditions: core histones or recombinant H2B, H3, H4 as acceptor, also automethylation; 50 mM Tris pH 8, 20 mM KCl, 10 mM MgCl2, 1 mM DTT, 30 °C, 1 h; labelled compound

T1 sequence (O84742 entry or part of it): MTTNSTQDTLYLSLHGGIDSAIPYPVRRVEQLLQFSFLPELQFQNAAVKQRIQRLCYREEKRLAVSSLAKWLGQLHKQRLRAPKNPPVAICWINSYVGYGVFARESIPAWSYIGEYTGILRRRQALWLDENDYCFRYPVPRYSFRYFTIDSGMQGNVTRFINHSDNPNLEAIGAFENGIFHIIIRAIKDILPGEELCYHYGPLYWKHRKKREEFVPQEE

SMILES: C[S+](CC[C@H](N)C(=O)O)C[C@H]1O[C@@H](n2cnc3c(N)ncnc32)[C@H](O)[C@@H]1O (stereo partly drawn) [SAM, S-adenosyl-L-methionine]
- in vitro methyltransferase assay, 14C autoradiography of SDS-PAGE: in vitro methyltransferase assays using GST-NUE purified from E. coli and mammalian histones
